Measured values from patent publication US11963962B2, “Platelet count-agnostic methods of treating myelofibrosis” (Sierra Oncology, Inc., priority 2018, dated 2024).
Several values for one entry are separate records, joined by “and”; a condition that tells them apart may be missing. Equal entries are not always repeated.

Tests used:
Assay type in all cases: in vivo, human
myelofibrosis [1] = assay: Translational biology Phase 2 study (GS-US-352-1672) in transfusion dependent MF patients
From the text: In a translational biology study, we determined the impact of momelotinib on plasma hepcidin, markers of iron storage and availability, erythropoiesis, and inflammation to explore mechanisms of the favorable effects of momelotinib on MF-associated anemia and transfusion independence. See Oh et al. “Hepcidin Suppression by Momelotinib Is Associated With Increased Iron Availability and Erythropoiesis in Transfusion-Dependent Myelofibrosis Patients”, Abstract #4282: Presented at ASH 60th Annual Meeting & Exposition: Dec. 1-4, 2018, San Diego, Calif., the disclosure of which is herein incorporated by reference.
Population: Primary MF (PMF), post-polycythemia vera MF (post-PV MF), or post-essential thrombocythemia MF (post-ET MF). Requiring MF therapy (in the opinion of the investigator). High risk or intermediate-2 (DIPSS). Transfusion Dependent (TD) at baseline. [defined as ≥4 U red blood cell (RBC) transfusion in the 8 weeks prior to the first dose of MMB]. Goal: Exploratory translational biology study (MMB: N=41 subjects). Objectives: Primary objective: determine the transfusion independence response rate (TI; ≥12 week & ≥8 week) for TD subjects with MF treated with momelotinib. Secondary objectives: Evaluate baseline levels and changes in markers of iron metabolism; Assess inhibition of JAK1/2; Evaluate momelotinib pharmacokinetics in transfusion-dependent subjects with MF; and Evaluate changes in circulating cytokine and inflammatory markers.

myelofibrosis [2] = assay: Combined analysis of TI response in TD patients from SIMPLIFY-1, SIMPLIFY-2 and '1672; settings: combined TD patients from SIMPLIFY-1, SIMPLIFY-2 and '1672 (n=152)
From the text: This aggregate data is representative of a continuum of Intermediate/High Risk MF patients.

myelofibrosis [3] = assay: SIMPLIFY-1 dynamic and time-to-event analyses of RBC transfusions
From the text: The SIMPLIFY-1 (S1) trial, a double-blind, active-controlled Phase 3 study in which 432 patients received randomized treatment with MMB or RUX for 24 weeks was previously reported (Mesa R A, Kiladjian J J, Catalano J V. et al. “Simplify-1: A phase III randomized trial of momelotinib versus ruxolitinib in j anus kinase inhibitor—naïve patients with myelofibrosis”, Journal of Clinical Oncology, 2017; 35:3844-50).
Since transfusion burden is of significant concern to clinicians and patients, to better understand the dynamics of RBC transfusions we further examined the S1 data through statistical models utilizing a variety of novel anemia benefit endpoints including time until transfusion and overall intensity of transfusions across time. The proportions of patients with 0 and 4 transfusions were calculated and time-to-event analyses examining time-to-first and time-to-fifth units transfused also conducted. Since transfusions typically comprise 2 units, the fifth unit transfused represents a de facto third transfusion event. The number of units transfused were also considered to be recurrent events and examined with and without patients' baseline characteristics as covariates. Finally, a mixture model, based on a zero-inflated negative binomial (ZINB) distribution fit to the transfusion data, was employed to compare between the treatment groups the proportions of subjects with zero transfusion burden and the mean transfusion rates.

[4] = SIMPLIFY-1, 24 week randomized treatment period

For `Cl.N#CCNC(=O)c1ccc(-c2ccnc(Nc3ccc(N4CCOCC4)cc3)n2)cc1` [MMB, N-(cyanomethyl)-4-(2-(4-morpholinophenylamino)pyrimidin-4-yl)benzamide], the “≥8 week transfusion independence rate” value (myelofibrosis [1]; Phase 2 GS-US-352-1672, TD subjects, N=41) was 39.0%, the “≥12 week transfusion independence rate” value (myelofibrosis [1]; Phase 2 GS-US-352-1672, TD subjects, N=41, listed as momelotinib) was 34% and 34.1% and the “time to increased serum iron and transferrin” value (myelofibrosis [1]; after momelotinib treatment initiation, FIG. 13) was at most 2 weeks. The “TI-NR patients with decreased transfusion burden (≥50%)” value (myelofibrosis [1]; any 8 week period, units of RBC, ≥2 unit decrease) was 77.8%, the effect on hepcidin (myelofibrosis [1]; post-MMB administration, FIG. 11) was “consistently decreased hepcidin” and the “≥8 week transfusion independence rate” value (myelofibrosis [2]) was 48.7%. For the same molecule, the “≥12 week transfusion independence rate” value (myelofibrosis [2]) was 44.1%, the “Kaplan-Meier estimate of the proportion of patients who did not require any units transfused” value (myelofibrosis [3]; [4]) was 73% and the “proportion of patients requiring 4 or fewer units” value (myelofibrosis [3]; [4]) was 83%. The “factor of increase of the odds of having zero units transfused” value (myelofibrosis [3]; SIMPLIFY-1, first 24 weeks, ZINB covariate model, MMB vs RUX) was 9.3 and the “hazard ratio, units transfused as recurrent events” value (myelofibrosis [3]; SIMPLIFY-1, MMB vs RUX, models with and without baseline covariates) was 0.522.
